# Assay results taken from publication PMC11005723, “Development of Complementary Photo‐arginine/lysine to Promote Discovery of Arg/Lys hPTMs Interactomes” (Advanced Science, 2024).
# Non-standard residues stand in square brackets, D forms with d. No end group written: not given here. *: point of attachment. Biotin = O=C1N[C@H]2[C@H](CS[C@H]2CCCCC(=O)*)N1; R(dz) = photo-arginine
# Tested on: HEK293T nuclear lysates
# Experiment: SILAC‐based pull‐down proteomics H4K5me1/H4K5 (probes 6/5)
# Type: binding, human
# Settings: for C6 log (H4K5me/H4K5): run C6; for B6 log2 (H4K5me/H4K5): run B6
substance,measurement,setting,value
probe 6: H4K5me peptide probe with photo‐arginine R(dz) and K(biotin) (SG[R(dz)]GK(Me)GGKGLGKGGK(Biotin)),C6 log (H4K5me/H4K5),protein P46109 CRKL,0.1336
same,B6 log2 (H4K5me/H4K5),protein P49959 MRE11A,0.207
same,C6 log (H4K5me/H4K5),protein P49959 MRE11A,0.09642
same,B6 log2 (H4K5me/H4K5),protein P54886 ALDH18A1,0.2574
same,C6 log (H4K5me/H4K5),protein P54886 ALDH18A1,0.1226
same,B6 log2 (H4K5me/H4K5),protein P60842 EIF4A1,0.1721
same,C6 log (H4K5me/H4K5),protein P60842 EIF4A1,0.03464
same,B6 log2 (H4K5me/H4K5),protein P62140 PPP1CB,0.1941
same,C6 log (H4K5me/H4K5),protein P62140 PPP1CB,0.1375
same,B6 log2 (H4K5me/H4K5),protein P78527 PRKDC,0.1659
same,C6 log (H4K5me/H4K5),protein P78527 PRKDC,0.03578
same,B6 log2 (H4K5me/H4K5),protein P82979 SARNP,0.2593
same,C6 log (H4K5me/H4K5),protein P82979 SARNP,0.2358
same,B6 log2 (H4K5me/H4K5),protein P83916 CBX1,1.115
same,C6 log (H4K5me/H4K5),protein P83916 CBX1,1.115
same,B6 log2 (H4K5me/H4K5),protein Q5JRI1 FUSIP1,0.2091
same,C6 log (H4K5me/H4K5),protein Q5JRI1 FUSIP1,0.05687
same,B6 log2 (H4K5me/H4K5),protein Q5QPR4 CDC2L2,0.1546
same,C6 log (H4K5me/H4K5),protein Q5QPR4 CDC2L2,0.218
same,B6 log2 (H4K5me/H4K5),protein Q5SY16 NOL9,0.2457
same,C6 log (H4K5me/H4K5),protein Q5SY16 NOL9,0.6439
same,B6 log2 (H4K5me/H4K5),protein Q5T760 SFRS11,0.2194
same,C6 log (H4K5me/H4K5),protein Q5T760 SFRS11,0.159
same,B6 log2 (H4K5me/H4K5),protein Q5UIP0 RIF1,0.2471
same,C6 log (H4K5me/H4K5),protein Q5UIP0 RIF1,0.213
same,B6 log2 (H4K5me/H4K5),protein Q6PD62 CTR9,0.2151
same,C6 log (H4K5me/H4K5),protein Q6PD62 CTR9,0.2109
same,B6 log2 (H4K5me/H4K5),protein Q6PJT7 ZC3H14,0.2381
same,C6 log (H4K5me/H4K5),protein Q6PJT7 ZC3H14,0.2485
same,B6 log2 (H4K5me/H4K5),protein Q7Z6E9 RBBP6,0.1468
same,C6 log (H4K5me/H4K5),protein Q7Z6E9 RBBP6,0.358
same,B6 log2 (H4K5me/H4K5),protein Q8IX15 HOMEZ,0.2323
same,C6 log (H4K5me/H4K5),protein Q8IX15 HOMEZ,0.1198
same,B6 log2 (H4K5me/H4K5),protein Q8N3X1 FNBP4,0.1827
same,C6 log (H4K5me/H4K5),protein Q8N3X1 FNBP4,0.2005
same,B6 log2 (H4K5me/H4K5),protein Q8N5C6 SRBD1,0.1982
same,C6 log (H4K5me/H4K5),protein Q8N5C6 SRBD1,0.09557
same,B6 log2 (H4K5me/H4K5),protein Q8N163 KIAA1967,0.1537
same,C6 log (H4K5me/H4K5),protein Q8N163 KIAA1967,0.2348
same,B6 log2 (H4K5me/H4K5),protein Q8TDD1 DDX54,0.1648
same,C6 log (H4K5me/H4K5),protein Q8TDD1 DDX54,0.2394
same,B6 log2 (H4K5me/H4K5),protein Q9BVJ6 UTP14A,0.973
same,C6 log (H4K5me/H4K5),protein Q9BVJ6 UTP14A,0.973
same,B6 log2 (H4K5me/H4K5),protein Q9H2P0 ADNP,0.2412
same,C6 log (H4K5me/H4K5),protein Q9H2P0 ADNP,-0.7035
same,B6 log2 (H4K5me/H4K5),protein Q9H7L9 SUDS3,1.175
same,C6 log (H4K5me/H4K5),protein Q9H7L9 SUDS3,1.175
same,B6 log2 (H4K5me/H4K5),protein Q9H9A6 LRRC40,0.1942
same,C6 log (H4K5me/H4K5),protein Q9H9A6 LRRC40,0.05299
same,B6 log2 (H4K5me/H4K5),protein Q9UBD5 ORC3,0.1586
same,C6 log (H4K5me/H4K5),protein Q9UBD5 ORC3,-0.1103
same,B6 log2 (H4K5me/H4K5),protein Q9UBW7 ZMYM2,0.2577
same,C6 log (H4K5me/H4K5),protein Q9UBW7 ZMYM2,0.2945
same,B6 log2 (H4K5me/H4K5),protein Q9UHB6 LIMA1,0.1593
same,C6 log (H4K5me/H4K5),protein Q9UHB6 LIMA1,0.1812
same,B6 log2 (H4K5me/H4K5),protein Q9UQ80 PA2G4,0.1452
same,C6 log (H4K5me/H4K5),protein Q9UQ80 PA2G4,-0.04803
same,B6 log2 (H4K5me/H4K5),protein Q9UQR0 SCML2,0.7435
same,C6 log (H4K5me/H4K5),protein Q9UQR0 SCML2,0.7435
same,B6 log2 (H4K5me/H4K5),protein Q9Y2L1 DIS3,0.1845
same,C6 log (H4K5me/H4K5),protein Q9Y2L1 DIS3,0.1312
same,B6 log2 (H4K5me/H4K5),protein Q9Y6C9 MTCH2,0.1565
same,C6 log (H4K5me/H4K5),protein Q9Y6C9 MTCH2,-0.06142
same,B6 log2 (H4K5me/H4K5),protein Q86VP6 CAND1,0.1606
same,C6 log (H4K5me/H4K5),protein Q86VP6 CAND1,0.2263
same,B6 log2 (H4K5me/H4K5),protein Q00839 HNRNPU,0.2071
same,C6 log (H4K5me/H4K5),protein Q00839 HNRNPU,0.1339
same,B6 log2 (H4K5me/H4K5),protein Q01082 SPTBN1,0.2576
same,C6 log (H4K5me/H4K5),protein Q01082 SPTBN1,0.166
same,B6 log2 (H4K5me/H4K5),protein Q06265 EXOSC9,0.1802
same,C6 log (H4K5me/H4K5),protein Q06265 EXOSC9,0.08146
same,B6 log2 (H4K5me/H4K5),protein Q06330 RBPJ,0.1919
same,C6 log (H4K5me/H4K5),protein Q06330 RBPJ,-0.04363
same,B6 log2 (H4K5me/H4K5),protein Q09161 NCBP1,0.2194
same,C6 log (H4K5me/H4K5),protein Q09161 NCBP1,0.2078
same,B6 log2 (H4K5me/H4K5),protein Q12874 SF3A3,0.1922
same,C6 log (H4K5me/H4K5),protein Q12874 SF3A3,0.1113
same,B6 log2 (H4K5me/H4K5),protein Q12888 TP53BP1,0.2132
same,C6 log (H4K5me/H4K5),protein Q12888 TP53BP1,0.1756
same,B6 log2 (H4K5me/H4K5),protein Q13185 CBX3,1.132
same,C6 log (H4K5me/H4K5),protein Q13185 CBX3,1.132
same,B6 log2 (H4K5me/H4K5),protein Q13363 CTBP1,0.1923
same,C6 log (H4K5me/H4K5),protein Q13363 CTBP1,-0.1428
same,B6 log2 (H4K5me/H4K5),protein Q13416 ORC2,0.2451
same,C6 log (H4K5me/H4K5),protein Q13416 ORC2,0.438
same,B6 log2 (H4K5me/H4K5),protein Q14137 BOP1,0.2019
same,C6 log (H4K5me/H4K5),protein Q14137 BOP1,-0.001199
same,B6 log2 (H4K5me/H4K5),protein Q14498 RBM39,0.2408
same,C6 log (H4K5me/H4K5),protein Q14498 RBM39,0.2735
same,B6 log2 (H4K5me/H4K5),protein Q14683 SMC1A,0.1556
same,C6 log (H4K5me/H4K5),protein Q14683 SMC1A,0.1782
same,B6 log2 (H4K5me/H4K5),protein Q15459 SF3A1,0.2515
same,C6 log (H4K5me/H4K5),protein Q15459 SF3A1,0.3427
same,B6 log2 (H4K5me/H4K5),protein Q16555 DPYSL2,0.7641
same,C6 log (H4K5me/H4K5),protein Q16555 DPYSL2,0.7641
same,B6 log2 (H4K5me/H4K5),protein Q16658 FSCN1,0.2138
same,C6 log (H4K5me/H4K5),protein Q16658 FSCN1,0.727
same,B6 log2 (H4K5me/H4K5),protein Q92688 ANP32B,0.1648
same,C6 log (H4K5me/H4K5),protein Q92688 ANP32B,0.135
same,B6 log2 (H4K5me/H4K5),protein Q99613 EIF3C,0.2459
same,C6 log (H4K5me/H4K5),protein Q99613 EIF3C,0.04711
